As a reminder, the inhibition is the share of the control response that was lost under treatment. Low readings indicate little suppression, high ones strong suppression.

Experimental findings from publication PMC6171417, “Carbonic anhydrase inhibition with a series of novel benzenesulfonamide-triazole conjugates” (Journal of Enzyme Inhibition and Medicinal Chemistry, 2018) are described below.

What all share (assay): cells
Set-up in all cases: species or system NCI human tumour cell line panel; NCI one-dose anti-proliferative screen, human tumour cell line panel, growth inhibition percent (GI%)

For test [1], the system named is OVCAR-5. The note with it: Homo sapiens, OVCAR-5; growth inhibition (GI%), single dose.
Test [2] deals with NCI-H460. The note with it: Homo sapiens, NCI-H460; growth inhibition (GI%), single dose.
The test system of test [3] is SK-MEL-28. To be noted: Homo sapiens, SK-MEL-28; growth inhibition (GI%), single dose.
Test [4] concerns RXF 393. To be noted: Homo sapiens, RXF 393; growth inhibition (GI%), single dose.
Test [5] concerns 786-0. To be noted: Homo sapiens, 786-0; growth inhibition (GI%), single dose.
Test [6] deals with DU-145. To be noted: Homo sapiens, DU-145; growth inhibition (GI%), single dose.

As for `CN(C)c1ccc(-c2nc3c(nnn3-c3ccc(S(N)(=O)=O)cc3)c(N)c2C#N)cc1` [compound 17, 4-(7-amino-6-cyano-5-(4-(dimethylamino)phenyl)-3H-[1,2,3]triazolo[4,5-b]pyridin-3-yl)benzenesulfonamide], the results for the inhibition at 10 µM in test [1] and in test [2] were 3.4% and 0.9%, respectively.

With `CCn1c(=S)[nH]c2c(nnn2-c2ccc(S(N)(=O)=O)cc2)c1=N` [compound 20, 4-(6-ethyl-7-imino-5-thioxo-4,5,6,7-tetrahydro-3H-[1,2,3]triazolo[4,5-d]pyrimidin-3-yl)benzenesulfonamide], in test [3], the inhibition at 10 µM came to 0%.

With `N#Cc1c(-c2ccc(Cl)cc2)nc2c(nnn2-c2ccc(S(N)(=O)=O)cc2)c1N` [compound 16, 4-(7-amino-5-(4-chlorophenyl)-6-cyano-3H-[1,2,3]triazolo[4,5-b]pyridin-3-yl)benzenesulfonamide], in test [4], the inhibition at 10 µM was determined as 17.8%.

Turning to `N#Cc1nnn(-c2ccc(S(N)(=O)=O)cc2)c1/N=C/c1ccc(Cl)cc1` [compound 9, 9], the values for the inhibition at 10 µM in test [5] and in test [6] were 6.1% and 1%, respectively.
